Test results: patent US9937225B2, “Topical formulations and uses thereof” (OCULAR TECHNOLOGIES SARL, priority 2012, dated 2018)

Columns and labels:
[1] = Weight percent of compound 1001 loaded into mixed nanomicelles (entrapment, RP-HPLC); assay type: physicochemical; conditions: solvent evaporation, HCO-60 4 wt %, Octoxynol-40 0.01 wt %
Method: To determine the entrapment efficiency of the formulation, all the prepared formulations were subjected to entrapment efficiency test. Briefly, formulations were vortex mixed for homogeneity and 1 mL was transferred to a fresh (1.5 mL) eppendorf tube. Each formulation was lyophilized to obtain a solid at the bottom of eppendorf tube. The obtained solid was suspended in 1 mL of organic solvent (diethyl ether) to generate reverse micelles and release the drug into the external organic solvent. The organic solvent was evaporated overnight in speed vacuum. The resultant reversed micelles were resuspended in 1 mL of 2-propanol (dilution factor was taken into account) and further diluted to determine the concentration of compound 1001 entrapped in each micellar preparation with HPLC. The entrapment efficiency of the formulation was calculated with the following formula (wherein MNF=Mixed Nanomicellar Formulation): […]
In vitro analysis of compound 1001 was performed by a reversed phase high performance liquid chromatography (RP-HPLC) method with a Shimadzu HPLC pump (Shimadzu, Shimadzu Scientific instruments, Columbia, Md.), Alcott autosampler (model 718 AL), Shimadzu UV/Visible detector (Shimadzu, SPD-20A/20AV, USA), ODS column (5 μm, 150×4.6 mm) thermostated at 40°±1 C and Hewlett Packard HPLC integrator (Hewlett Packard, Palo Alto, Calif.). The mobile phase was comprised of methanol (MeOH), water and trifluoroacetic acid (TFA) (70:30:0.05% v/v) which was set at a flow rate of 0.5 mL/min. Detection wavelength was set at 272 nm. The sample tray temperature was maintained at 4° C. Calibration curve (0.5 to 5 μg/mL) for compound 1001 was prepared by making appropriate dilutions from the stock solution in 2-propanol. An injection volume of 10 μl was injected into the HPLC column for analysis. All the standards and samples prepared were stored at 4° C. before and during the analysis.
Mixed nanomicellar formulation encapsulating compound 1001 was prepared by solvent evaporation method in two steps: 1) Preparation of basic formulation and 2) rehydration. In step one, compound 1001, HCO-60 and octoxynol-40 were dissolved separately in 0.3 mL of ethyl acetate. These three solutions were mixed together in 15-mL centrifuge tube. The resultant mixture was vortexed to obtain a homogenous solution. Ethyl acetate solvent was removed with speed vacuum to obtain a solid thin film. The residue was kept overnight under high vacuum at room temperature to remove residual organic solvent. In step two, the resultant thin film was hydrated with 1 mL of double distilled deionized water by vortexing the solution. The rehydrated formulation was suspended in 2× phosphate buffer solution, (pH 6.5). It was filtered through 0.2 μm nylon filter membrane to remove the unentrapped drug aggregates and other foreign particulates. The entrapment of compound 1001 was determined by RP-HPLC following disruption of the micelles and solubilization of 1001 in the diluent (2-propanol) as described below
Weight percent of drug loaded into MNF was determined following the method for entrapment efficiency. Size and polydispersity index of the formulations was determined with Malvern zetasizer as described above. The formulations appear clear and have small size and narrow size distribution.

[2] = Ocular tissue distribution of compound 1001 nanomicellar formulations (LC-MS/MS); assay type: in vivo, New Zealand White Rabbits; conditions: rabbits, topical ocular administration
Method: A study was conducted in rabbits to test the tolerance and ocular tissue distribution of two nanomicellar formulations of compound 1001 (RX10045) against matching placebos (Table 6a and 6b) and balanced saline solution (BSS). Healthy New Zealand female white rabbits (2-3 kg) were used for this study. One drop (approximately 35 μL) of study drug was applied o.d. 4×/day at two hour intervals for 5 days. One drop of BSS was applied to the contralateral eye.
Selected ocular fluids/tissues (aqueous humor, vitreous humor, conjunctiva, cornea, iris-ciliary body, lens, retina/choroid, and sclera) collected from two rabbits each in the RX-10045 (0.15% in HCO-60, 0.1% in HCO-40) treatment groups, and from one rabbit in each of the matching placebo groups, were assayed for compound 1001 and another resolvin by liquid chromatography-tandem mass spectrometry (LC-MS/MS). Warfarin-d5 and 5-HDA were used as internal standards for the analysis of RX-10045 and its active metabolite, RX-10008, respectively, in aqueous humor and vitreous humor. For the other ocular tissues (solid tissues), warfarin-d5 and phenyl acetic acid-d5 (PAA-d5) were used as the internal standards for compound 1001 and RX-10008, respectively. The analytical range for the solid tissues were 0.125-100 ng. The results of the solid tissue analyses were converted to ng/g by correcting for the amount of tissue analyzed.

- Hydrolysis to active metabolite RX-10008 in ocular tissues [2]: rapidly hydrolyzed
Structure (SMILES): C#CC[C@@H](O)/C=C/C=C/C#C[C@@H](O)CCCC(=O)OC(C)C [compound 1001]
- 1001 (loaded in mixed micelles) wt % ([1]; 1001 initially added 0.035 wt %): 0.033 wt %
- 1001 (loaded in mixed micelles) wt % ([1]; 1001 initially added 0.070 wt %): 0.065 wt %
- 1001 (loaded in mixed micelles) wt % ([1]; 1001 initially added 0.095 wt %): 0.084 wt %
- 1001 (loaded in mixed micelles) wt % ([1]; 1001 initially added 0.120 wt %): 0.11 wt %
- 1001 (loaded in mixed micelles) wt % ([1]; 1001 initially added 0.250 wt %): 0.26 wt %
- 1001 (loaded in mixed micelles) wt % ([1]; 1001 initially added 0.300 wt %): 0.32 wt %
- 1001 (loaded in mixed micelles) wt % ([1]; 1001 initially added 0.400 wt %): 0.45 wt %
